Assay: Cannabinoid stability in solution (time course incubation)
Type: physicochemical
Settings: for Day 0 concentration in solution / Day 1 concentration in solution / Day 4 concentration in solution / Day 5 concentration in solution / Day 6 concentration in solution / Day 7 concentration in solution: room temperature, shielded from light
Method: Rather, levels increased slightly in all treatments. The absence of any residual UGTs were cross-check and confirmed as the samples were purified by SPE, washed and eluted in 30% and 65%-100% ethanol, respectively.
Materials and Methods Example 19: Cannabinoid Stability in Solution.
The present inventors generated a stock solution of the CBD/CBDA+glycosides mixture in water which was further diluted 10× in all treatment solutions. A 10 mL starting volume was used for all treatments, and all treatments were prepared in triplicate. […] Each sample was incubated at room temperature. Samples were stored in 15 mL polypropylene centrifuge tubes. All samples were shielded from light—tubes were wrapped in aluminum foil. Each sample was prepared in triplicate in the following buffers: water only; pH=3; pH=4; pH=7; pH=8; water only+10 mM ascorbic acid; pH=3+10 mM ascorbic acid; pH=4+10 mM ascorbic acid; pH=7+10 mM ascorbic acid; and pH=8+10 mM ascorbic acid.

[1] = Water + AA (10 mM ascorbic acid)
[2] = pH = 3 + AA (10 mM ascorbic acid)
[3] = pH = 4 + AA (10 mM ascorbic acid)
[4] = pH = 7 + AA (10 mM ascorbic acid)
[5] = pH = 8 + AA (10 mM ascorbic acid)

SMILES: C=C(C)C1CCC(C)=CC1c1c(O)cc(CCCCC)cc1OC1OC(COC(C)=O)C(O)C(O)C1O (stereo not shown) [1X CBD O-Acetyl Gly]
- Day 0 concentration in solution [1]: 102.24 ± 12.18 µg/mL
- Day 0 concentration in solution (Water): 137.46 ± 35.49 µg/mL
- Day 0 concentration in solution [2]: 110.44 ± 13.31 µg/mL
- Day 0 concentration in solution (pH = 3): 126.49 ± 43.90 µg/mL
- Day 0 concentration in solution [3]: 118.27 ± 1.16 µg/mL
- Day 0 concentration in solution (pH = 4): 101.60 ± 31.49 µg/mL
- Day 0 concentration in solution [4]: 108.19 ± 19.12 µg/mL
- Day 0 concentration in solution (pH = 7): 107.55 ± 20.03 µg/mL
- Day 0 concentration in solution [5]: 137.53 ± 6.71 µg/mL
- Day 0 concentration in solution (pH = 8): 108.41 ± 12.42 µg/mL
- Day 1 concentration in solution [1]: 204.63 ± 24.09 µg/mL
- Day 1 concentration in solution (Water): 136.86 ± 139.68 µg/mL
- Day 1 concentration in solution [2]: 223.32 ± 48.67 µg/mL
- Day 1 concentration in solution (pH = 3): 216.46 ± 9.61 µg/mL
- Day 1 concentration in solution [3]: 198.56 ± 24.37 µg/mL
- Day 1 concentration in solution (pH = 4): 150.94 ± 27.25 µg/mL
- Day 1 concentration in solution [4]: 185.02 ± 35.46 µg/mL
- Day 1 concentration in solution (pH = 7): 250.75 ± 6.23 µg/mL
- Day 1 concentration in solution [5]: 180.83 ± 33.60 µg/mL
- Day 1 concentration in solution (pH = 8): 221.10 ± 16.30 µg/mL
- Day 4 concentration in solution [1]: 153.06 ± 28.19 µg/mL
- Day 4 concentration in solution (Water): 160.23 ± 23.75 µg/mL
- Day 4 concentration in solution [2]: 157.19 ± 1.58 µg/mL
- Day 4 concentration in solution (pH = 3): 174.88 ± 14.16 µg/mL
- Day 4 concentration in solution [3]: 144.44 ± 18.85 µg/mL
- Day 4 concentration in solution (pH = 4): 225.84 ± 39.59 µg/mL
- Day 4 concentration in solution [4]: 176.48 ± 33.58 µg/mL
- Day 4 concentration in solution (pH = 7): 190.05 ± 24.38 µg/mL
- Day 4 concentration in solution [5]: 152.03 ± 5.79 µg/mL
- Day 4 concentration in solution (pH = 8): 174.09 ± 59.87 µg/mL
- Day 5 concentration in solution [1]: 146.60 ± 10.68 µg/mL
- Day 5 concentration in solution (Water): 131.77 ± 33.91 µg/mL
- Day 5 concentration in solution [2]: 97.81 ± 29.67 µg/mL
- Day 5 concentration in solution (pH = 3): 83.72 ± 35.56 µg/mL
- Day 5 concentration in solution [3]: 113.89 ± 31.15 µg/mL
- Day 5 concentration in solution (pH = 4): 164.84 ± 35.61 µg/mL
- Day 5 concentration in solution [4]: 110.66 ± 48.12 µg/mL
- Day 5 concentration in solution (pH = 7): 186.93 ± 5.65 µg/mL
- Day 5 concentration in solution [5]: 92.06 ± 15.47 µg/mL
- Day 5 concentration in solution (pH = 8): 162.75 ± 31.35 µg/mL
- Day 6 concentration in solution [1]: 200.20 ± 37.42 µg/mL
- Day 6 concentration in solution (Water): 148.36 ± 33.57 µg/mL
- Day 6 concentration in solution [2]: 190.69 ± 36.71 µg/mL
- Day 6 concentration in solution (pH = 3): 175.06 ± 31.37 µg/mL
- Day 6 concentration in solution [3]: 215.72 ± 16.69 µg/mL
- Day 6 concentration in solution (pH = 4): 231.03 ± 36.34 µg/mL
- Day 6 concentration in solution [4]: 205.61 ± 26.64 µg/mL
- Day 6 concentration in solution (pH = 7): 267.45 ± 30.83 µg/mL
- Day 6 concentration in solution [5]: 217.66 ± 11.23 µg/mL
- Day 6 concentration in solution (pH = 8): 218.64 ± 22.05 µg/mL
- Day 7 concentration in solution [1]: 167.42 ± 22.79 µg/mL
- Day 7 concentration in solution (Water): 185.62 ± 22.87 µg/mL
- Day 7 concentration in solution [2]: 147.21 ± 8.07 µg/mL
- Day 7 concentration in solution (pH = 3): 195.77 ± 15.07 µg/mL
- Day 7 concentration in solution [3]: 166.23 ± 17.10 µg/mL
- Day 7 concentration in solution (pH = 4): 201.23 ± 6.99 µg/mL
- Day 7 concentration in solution [4]: 157.89 ± 17.21 µg/mL
- Day 7 concentration in solution (pH = 7): 187.10 ± 28.07 µg/mL
- Day 7 concentration in solution [5]: 181.7 ± 29.53 µg/mL
- Day 7 concentration in solution (pH = 8): 193.61 ± 21.84 µg/mL
- change of level in solution over the incubation (all treatments, after day 7, room temperature): not found to decrease in any sample after day 7

Reference: US11946059B2, “In vivo generation of water-soluble cannabinoids in plant cell suspension cultures” (Trait Biosciences Inc., priority 2017, dated 2024)
